Assay results published in patent US20040248765A1, “Tumour targeting prodrugs activated by metallo matrixproteinases” (priority 2001, published 2004).
Read-outs that look alike come from different tables or passages of the source. Where a SMILES comes first, the peptide text is derived from it. [ ]: non-standard residue; d: D form. The star is where a group is joined. NH(CH2)3NH(1-anthraquinonyl) = O=C1c2ccccc2C(=O)c2c(NCCCN*)cccc21

Experiments:
[1] = target: T1, topo I (Homo sapiens, UniProt P11387); test: Inhibition of topo I-mediated relaxation of pBR322 DNA; assay type: biochemical; settings: for LEVEL OF INHIBITION of topo I-mediated relaxation pBR322 DNA: tested between 1-100 μM
T1 sequence (P11387 1-765): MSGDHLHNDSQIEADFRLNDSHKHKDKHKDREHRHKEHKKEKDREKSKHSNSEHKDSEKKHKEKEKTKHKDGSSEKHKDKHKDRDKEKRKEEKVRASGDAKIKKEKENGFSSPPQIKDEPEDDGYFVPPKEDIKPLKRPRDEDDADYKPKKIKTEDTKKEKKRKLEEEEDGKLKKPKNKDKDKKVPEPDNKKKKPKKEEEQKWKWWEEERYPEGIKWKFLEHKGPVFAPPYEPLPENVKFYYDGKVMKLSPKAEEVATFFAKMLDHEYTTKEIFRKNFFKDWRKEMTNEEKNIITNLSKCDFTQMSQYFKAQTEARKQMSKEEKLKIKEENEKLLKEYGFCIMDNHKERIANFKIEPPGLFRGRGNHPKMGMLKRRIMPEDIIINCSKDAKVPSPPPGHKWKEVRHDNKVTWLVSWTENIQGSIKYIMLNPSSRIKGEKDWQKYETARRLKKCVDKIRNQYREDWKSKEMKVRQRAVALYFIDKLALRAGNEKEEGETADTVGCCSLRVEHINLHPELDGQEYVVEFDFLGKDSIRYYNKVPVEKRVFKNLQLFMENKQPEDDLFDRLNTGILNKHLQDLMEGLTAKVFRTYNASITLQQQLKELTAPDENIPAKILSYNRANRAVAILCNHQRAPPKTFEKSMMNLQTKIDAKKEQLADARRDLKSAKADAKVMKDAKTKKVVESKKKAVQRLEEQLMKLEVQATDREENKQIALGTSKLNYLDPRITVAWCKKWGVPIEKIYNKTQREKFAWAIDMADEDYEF
Protocol: Neither example (8) [NU:UB187] (heptapeptide) nor its hexa-, penta-, or tetra-peptide metabolites {examples (7) [NU:UB 205], (6) [NU:UB 204] and (5) [NU:UB 186] respectively} inhibited the topo I- mediated relaxation of pBR322 DNA at concentrations up to 100 μM. […] (the preferred MMP-2 cleavage product of example (8) [NU:UB187] The topo I activities of example (2) [NU:UB 31] and example (1b) [NU:UB 197] bad previously been determined [Table 1].

[2] = tested on: MAC15A; test: In vitro cytotoxicity, MAC15A, 1 hour exposure; assay type: cell-based; settings: for % cells remaining: 1 × 10^4 cells/ml
[3] = tested on: calf thymus DNA; test: Fluorescence quenching, Hoechst Dye 33258 displacement from calf thymus DNA; assay type: binding; settings: for QH50 (Hoechst Dye 33258 displacement): calf thymus DNA
[4] = tested on: MAC15A adenocarcinoma of the colon; test: In vitro cytotoxicity against MAC15A adenocarcinoma of the colon, 96 hours exposure; assay type: cell-based
[5] = tested on: calf thymus DNA; test: Fluorescence quenching, Ethidium Bromide displacement from calf thymus DNA; assay type: binding; settings: for QE50 (Ethidium Bromide displacement): calf thymus DNA
[6] = In vitro tumour incubations: metabolism by dilute HT1080 tumour homogenate (HPLC); assay type: in vitro ADME; settings: dilute HT1080 tumour homogenate (1:500)
Protocol: Separation was achieved using gradient reversed phase HPLC On a Lichrospher (25×4 mm) column.
Mobile phase A consisted of 10% acetonitrile: 90% TFA (0.05%) and mobile phase B of 60% acetonitrile: 40% TFA (0.05%). Optimum detection was at the λmax of 248 nm using a flow rate of 1.2 ml/min. The gradient profile was from 60% A to 5% A over 25 min.
Sample preparation for HPLC was by simple protein precipitation. 3 vols. of methanol were added to 1 vol. of sample (typically 100 μl) which was centrifuged at 3000 g for 5 min. The supernatant was injected directly onto the HPLC column.
In Vitro Tumour Incubations
Solid tumour (HTT1080—excised from NCI-Nu mice under a Home Office Licence) was homogenised (1:4) in MMP buffer. Tumour homogenates were incubated at 25° C. and compounds (drugs) were added to the homogenate to give a final concentration of 10 μM or 100 μM. Samples were taken at timed intervals and prepared for HPLC analysis as described above.
Where metabolism was so rapid tumour homogenates required dilution (to 1:500) before analysis.

[7] = target: T2, human recombinant MMP-9 (Homo sapiens, UniProt P14780); test: In vitro enzyme incubation with recombinant MMP-9 (HPLC, MS/MS); assay type: biochemical; settings: HPLC and MS/MS
T2 construct: purchased Calbiochem (Calbiochem-Novabiochem Ltd, Nottingham, UK)
T2 sequence (P14780 94-707): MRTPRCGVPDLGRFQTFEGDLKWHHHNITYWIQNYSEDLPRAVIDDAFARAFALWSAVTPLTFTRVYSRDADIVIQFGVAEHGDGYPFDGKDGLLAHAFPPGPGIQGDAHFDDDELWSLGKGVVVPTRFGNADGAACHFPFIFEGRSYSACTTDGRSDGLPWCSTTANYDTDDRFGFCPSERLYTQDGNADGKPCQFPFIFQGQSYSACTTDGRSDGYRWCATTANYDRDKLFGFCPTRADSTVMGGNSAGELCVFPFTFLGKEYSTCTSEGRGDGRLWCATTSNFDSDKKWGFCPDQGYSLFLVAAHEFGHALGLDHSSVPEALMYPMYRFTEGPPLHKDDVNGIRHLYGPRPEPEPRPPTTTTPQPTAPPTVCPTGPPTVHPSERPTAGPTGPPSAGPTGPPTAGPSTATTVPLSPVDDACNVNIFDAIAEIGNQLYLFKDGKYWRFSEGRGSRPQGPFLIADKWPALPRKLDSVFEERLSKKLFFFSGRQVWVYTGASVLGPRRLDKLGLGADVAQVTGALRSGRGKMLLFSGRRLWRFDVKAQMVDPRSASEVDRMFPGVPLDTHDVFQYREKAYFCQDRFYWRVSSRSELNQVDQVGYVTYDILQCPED
Protocol: In vitro Enzyme Incubations
Compounds were incubated in vitro with purified recombinant enzyme (either MMP-9 or MMP-2) (Calbiochem, Nottingham, UK). Typically, compounds (drugs) were incubated at 5 μM concentrations using 10 μl of enzyme, 10μl of drug and 90 μl of buffer at 25° C. The buffer used consisted of 200 mM NaCl, 50 mM Tris, 5 mM CaCl2, 20 μM ZnSO4 and 0.05% Brij35 at pH 7.6.
At various time points 20 μl samples were taken and 60 μl of methanol added to precipitate proteins as described above and the metabolism of the compounds was analysed by HPLC (as above).

[8] = Stability in murine whole blood and mouse plasma; assay type: in vitro ADME

Row | Structure (SMILES) | LEVEL OF INHIBITION of topo I-mediated relaxation pBR322 DNA [1] | % cells remaining ([2]; 1 μM) [%] | % cells remaining ([2]; 10 μM) [%] | % cells remaining ([2]; 100 μM) [%] | IC50 ([2]; Mus musculus) [µM] | melting point [°C] | further results
1 | NCCCNc1cccc2c1C(=O)c1ccccc1C2=O.O=C(O)C(F)(F)F [Example 1b, 1-[(3-Aminopropyl)amino]anthraquinone trifluoroacetate] | Complete inhibition of relaxation at 25 μM | 90 | 100 | 5 | 33 | – | –
2 | O=C(O)C(F)(F)F.O=C1c2ccccc2C(=O)c2c(NCCCNC(=O)[C@@H]3CCCN3)cccc21 [Example 2, 1-[3-(L-Propylamino)propylamino]anthraquinone trifluoroacetate] | Complete inhibition of relaxation at 25 μM | 100 | 30 | 0 | – | – | QH50 (Hoechst Dye 33258 displacement) [3]: 0.6 µM; IC50 ([4]; exposure time 96 hours, read-out: IC50): 4.3 µM; IC50 [2]: 5 µM; QE50 (Ethidium Bromide displacement) [5]: 2 µM
3 | CC(C)C[C@H](N)C(=O)N1CCC[C@H]1C(=O)NCCCNc1cccc2c1C(=O)c1ccccc1C2=O.O=C(O)C(F)(F)F [Example 3, 1-[3-(L-Leucyl-L-prolylamino)propylamino]anthraquinone trifluoroacetate] | Complete inhibition of relaxation at 5 μM | 80 | 58 | 1 | 14 | 126 | IC50 ([4]; Mus musculus, 96 h): 2 µM
4 | CC(C)C[C@H](NC(=O)CN)C(=O)N1CCC[C@H]1C(=O)NCCCNc1cccc2c1C(=O)c1ccccc1C2=O.O=C(O)C(F)(F)F [Example 4, 1-[3-(Glycyl-L-leucyl-L-prolylamino)propylamino]anthraquinone trifluoroacetate] | Partial inhibition of relaxation at 50 μM | 91 | 55 | 0 | 13 | 144 to 148 | –
5 | CC(C)C[C@H](NC(=O)CNC(=O)[C@@H](N)CC(C)C)C(=O)N1CCC[C@H]1C(=O)NCCCNc1cccc2c1C(=O)c1ccccc1C2=O.O=C(O)C(F)(F)F [Example 5, 1-[3-(L-Leucyl-glycyl-L-leucyl-L-prolylamino)propylamino]-anthraquinone trifluoroacetate] (H-LGLP-{NH(CH2)3NH(1-anthraquinonyl)}) | No inhibition of relaxation between 1-100 μM | 89 | 100 | 0 | 30 | 144 | –
6 | CC(C)C[C@H](NC(=O)[C@H](C)N)C(=O)NCC(=O)N[C@@H](CC(C)C)C(=O)N1CCC[C@H]1C(=O)NCCCNc1cccc2c1C(=O)c1ccccc1C2=O.O=C(O)C(F)(F)F [Example 6, 1-[3-(L-Alanyl-L-leucyl-glycyl-L-leucyl-L-prolylamino)propylamino]-anthraquinone trifluoroacetate] | No inhibition of relaxation between 1-100 μM | – | – | – | – | 168 | –
7 | CC(C)C[C@H](NC(=O)[C@H](C)NC(=O)[C@H](C)N)C(=O)NCC(=O)N[C@@H](CC(C)C)C(=O)N1CCC[C@H]1C(=O)NCCCNc1cccc2c1C(=O)c1ccccc1C2=O.O=C(O)C(F)(F)F [Example 7, 1-[3-(L-Alanyl-L-alanyl-L-leucyl-glycyl-L-leucyl-L-prolylamino)-propylamino]anthraquinone trifluoroacetate] | No inhibition of relaxation between 1-100 μM | – | – | – | – | 132 | –
8 | CC(C)C[C@H](NC(=O)[C@H](C)NC(=O)[C@H](C)NC(=O)[C@@H](C)N)C(=O)NCC(=O)N[C@@H](CC(C)C)C(=O)N1CCC[C@H]1C(=O)NCCCNc1cccc2c1C(=O)c1ccccc1C2=O.O=C(O)C(F)(F)F [Example 8, 1-[3-(D-Alanyl-L-alanyl-L-alanyl-L-leucyl-glycyl-L-leucyl-L-prolylamino)-propylamino]anthraquinone trifluoroacetate] (H-[dA]AALGLP-{NH(CH2)3NH(1-anthraquinonyl)}) | No inhibition of relaxation between 1-100 μM | 100 | 100 | 95 | > 100 | 166 | major products / metabolite [6]: the cleavage product Example 4 and the anthraquinone Example 1a; rate of metabolism [6]: 1.75 μmol/min/g tissue; QH50 (Hoechst Dye 33258 displacement) [3]: 4 µM; groove binding to DNA ([3]; in comparison to example (2) NU:UB 31): weak groove binding agent; IC50 ([4]; Mus musculus, 96 h): 36 µM; cleavage product with MMP-9 [7]: cleavage to anthraquinonyl, spacer-linked tripeptide Example 4; QE50 (Ethidium Bromide displacement) [5]: 17 µM; intercalation into DNA ([5]; refers to Table 3): not to intercalate into DNA
9 | CC(C)C[C@H](N)C(=O)N1CCC[C@H]1C(=O)NCCCNc1cccc2c1C(=O)c1ccccc1C2=O.O=C(O)C(F)(F)F [example (3)] | – | – | – | – | – | – | inhibition of topo I-mediated relaxation, in words [1]: Greatest inhibitory activity
10 | CC(C)C[C@H](NC(=O)CN)C(=O)N1CCC[C@H]1C(=O)NCCCNc1cccc2c1C(=O)c1ccccc1C2=O.O=C(O)C(F)(F)F [example (4)] | – | – | – | – | – | – | inhibition of topo I-mediated relaxation, in words [1]: weakly inhibited relaxation at 50 μM
11 | CC(C)C[C@H](NC(=O)[C@H](C)NC(=O)[C@H](C)NC(=O)[C@@H](C)N)C(=O)NCC(=O)N[C@@H](CC(C)C)C(=O)N1CCC[C@H]1C(=O)NCCCNc1cccc2c1C(=O)c1ccccc1C2=O.O=C(O)C(F)(F)F [example (8)] (H-[dA]AALGLP-{NH(CH2)3NH(1-anthraquinonyl)}) | – | – | – | – | – | – | t½ ([8]; mouse plasma at 37° C.): > 13 h; half-life ([8]; murine whole blood): 1.46 h
12 | CC(C)C[C@H](NC(=O)[C@H](C)NC(=O)[C@H](C)NC(=O)[C@@H](C)N)C(=O)NCC(=O)N[C@@H](CC(C)C)C(=O)N1CCC[C@@H]1C(=O)NCCCNc1cccc2c1C(=O)c1ccccc1C2=O.O=C(O)C(F)(F)F [example (15)] (H-[dA]AALGL[dP]-{NH(CH2)3NH(1-anthraquinonyl)}) | – | – | – | – | – | – | major products / metabolite [6]: the expected cleavage product example (11) [NU:UB 224]; rate of metabolism [6]: 2.5 μmol/min/g tissue
